Measurements as given in ChEMBL document CHEMBL4418271, “Novel Ethanediamone Hepcidine Antagonists” (2012).
pIC50: −log10 of the molar value.

Molecular target: T1, Hepcidin (Homo sapiens) (UniProt P81172)
T1 sequence (whole entry): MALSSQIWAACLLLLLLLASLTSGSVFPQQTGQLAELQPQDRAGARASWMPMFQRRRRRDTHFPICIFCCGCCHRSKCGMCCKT
Experiment: Inhibition of human hepcidin-stimulated recombinant C-terminal Halo-tagged human FPN internalization in MDCK cells at 10 uM incubated for 15 to 20 mins by Halo-tagged TMR based fluorescence assay relative to control
Format: cell-based

| Compound | inhibition [%] |
| --- | --- |
| COCCN1CCN(C(CN2CCC(N3CCCCC3)CC2)c2ccccc2)CC1 (configuration not stated) | > 50 |
| COc1ccc(CNC(CN2CCC(N3CCCCC3)CC2)c2ccccc2)cc1 (configuration not stated) | < 50 |
| O=C(C1CCCO1)N1CCN(CC(NCc2ccccn2)c2ccc(F)cc2)CC1 (configuration not stated) | < 50 |
| O=C(C1CCCO1)N1CCN(CC(NCc2ccccn2)c2ccccc2)CC1 (configuration not stated) | < 50 |
| c1ccc(C(CN2CCC(N3CCCCC3)CC2)NCCN2CCOCC2)cc1 (configuration not stated) | < 50 |
| Fc1ccc(C(CN2CCN(c3cnccn3)CC2)NCc2ccccn2)cc1 (configuration not stated) | > 50 |

Molecular target: Ferroportin (Homo sapiens, UniProt Q9NP59)
Experiment: Inhibition of human hepcidin-stimulated recombinant C-terminal Halo-tagged human FPN internalization in MDCK cells incubated for 15 to 20 mins by Halo-tagged TMR based fluorescence assay
Format: cell-based

Chain of Ferroportin (Q9NP59 whole entry, looked up): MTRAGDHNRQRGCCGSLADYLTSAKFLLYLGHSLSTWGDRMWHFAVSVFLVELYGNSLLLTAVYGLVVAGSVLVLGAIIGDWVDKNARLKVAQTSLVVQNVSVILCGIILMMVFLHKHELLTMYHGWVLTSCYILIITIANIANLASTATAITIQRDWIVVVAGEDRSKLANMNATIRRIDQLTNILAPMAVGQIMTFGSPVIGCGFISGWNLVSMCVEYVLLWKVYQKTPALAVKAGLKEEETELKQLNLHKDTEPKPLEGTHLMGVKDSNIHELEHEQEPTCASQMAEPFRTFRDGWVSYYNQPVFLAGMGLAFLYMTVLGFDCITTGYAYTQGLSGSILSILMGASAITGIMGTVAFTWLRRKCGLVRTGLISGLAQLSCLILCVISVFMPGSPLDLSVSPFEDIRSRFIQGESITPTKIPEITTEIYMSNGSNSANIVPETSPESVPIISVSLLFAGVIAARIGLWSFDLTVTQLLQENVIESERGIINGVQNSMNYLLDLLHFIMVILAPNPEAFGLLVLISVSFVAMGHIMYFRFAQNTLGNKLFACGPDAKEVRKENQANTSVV

| Compound | pIC50 |
| --- | --- |
| COCCN1CCN(C(CN2CCC(N3CCCCC3)CC2)c2ccc(C)cc2)CC1 (configuration not stated) | > 4.30 |
| CCCCN1CCN(C(CN2CCC(N3CCCCC3)CC2)c2ccccc2)CC1 (configuration not stated) | < 4.00 |
| COc1ccccc1C(=O)N1CCN(CC(NCc2ccccn2)c2ccc(F)cc2)CC1 (configuration not stated) | > 4.30 |
| Fc1ccc(C(CN2CCN(c3ccccc3)CC2)NCc2ccccn2)cc1 (configuration not stated) | < 4.00 |
| c1ccc(C(CN2CCC(N3CCCCC3)CC2)N2CCN(CC3CCCO3)CC2)cc1 (configuration not stated) | > 4.30 |
| c1ccc(C(CN2CCCCC2)NCCN2CCOCC2)cc1 (configuration not stated) | > 4.00 |
| COCCN1CCN(C(CN2CCC(C3CCCCC3)CC2)c2ccccc2)CC1 (configuration not stated) | < 4.00 |
| CNC(=O)C1CCN(CC(c2ccccc2)N2CCN(CCOC)CC2)CC1 (configuration not stated) | > 4.00 |
| NC(CN1CCN(C(=O)C2CCCO2)CC1)c1ccc(F)cc1 (configuration not stated) | < 4.00 |
| CN(CCN(C)c1cnccn1)CC(NCc1ccccn1)c1ccc(F)cc1 (configuration not stated) | > 4.30 |
| O=C(C1CCCO1)N1CCN(CC(NCc2ccccc2)c2ccccc2)CC1 (configuration not stated) | < 4.00 |
| NC(CN1CCN(c2cnccn2)CC1)c1ccc(F)cc1 (configuration not stated) | < 4.00 |
| c1ccc(CNC(CN2CCN(c3cnccn3)CC2)c2ccncc2)nc1 (configuration not stated) | < 4.00 |
| COCCN1CCN(C(CN2CCC(N3CCCCC3)CC2)c2ccccc2Cl)CC1 (configuration not stated) | < 4.00 |
| COCCN1CCN(C(CN2CCC(N3CCCCC3)CC2)c2ccc(OC(C)C)cc2)CC1 (configuration not stated) | < 4.00 |
| COCCN1CCN(C(CN2CCC(N3CCCCC3)CC2)c2ccccc2)CC1 (configuration not stated) | > 4.30 |
| COCCN1CCCN(C(CN2CCC(N3CCCCC3)CC2)c2ccccc2)CC1 (configuration not stated) | > 4.30 |
| COCCN1CCN(C(CN2CCC(N3CCCCC3)CC2)c2cccc(OC)c2)CC1 (configuration not stated) | > 4.00 |
| CCN(CC)CCN1CCN(C(CN2CCC(N3CCCCC3)CC2)c2ccccc2)CC1 (configuration not stated) | < 4.00 |
| COCCN1CCN(C(CN2CCC(C(=O)NC3CCCCC3)CC2)c2ccccc2)CC1 (configuration not stated) | < 4.00 |
| c1ccc(C(CN2CCC(N3CCCCC3)CC2)N2CCN(c3ccccn3)CC2)cc1 (configuration not stated) | < 4.00 |
| COCCN1CCN(C(CN2CCC(NC3CCCC3)CC2)c2ccccc2)CC1 (configuration not stated) | > 4.30 |
| COCCN1CCN(C(CN2CCC(N3CCC(C)CC3)CC2)c2ccccc2)CC1 (configuration not stated) | > 4.00 |
| CCN(CC)C1CCN(CC(c2ccccc2)N2CCN(CCOC)CC2)CC1 (configuration not stated) | > 4.30 |

| Compound | pIC50 |
| --- | --- |
| COCCN1CCN(C(CN2CCC(N3CCCCC3)CC2)c2ccc(OC)cc2)CC1 (configuration not stated) | > 4.30 |
| O=C(C1CCCO1)N1CCN(C(CN2CCC(N3CCCCC3)CC2)c2ccccc2)CC1 (configuration not stated) | < 4.00 |
| COc1ccc(CNC(CN2CCCCC2)c2ccccc2)cc1 (configuration not stated) | < 4.00 |
| COCCN1CCN(C(CN2CCC(NC(=O)C3CCCCC3)CC2)c2ccccc2)CC1 (configuration not stated) | > 4.30 |
| O=C(C1CCCO1)N1CCN(CC(NCc2ccccc2)c2ccc(F)cc2)CC1 (configuration not stated) | < 4.00 |
| COCCN1CCN(C(CN2CCN(c3ccccc3)CC2)c2ccccc2)CC1 (configuration not stated) | < 4.00 |
| COCCNC(CN1CCN(c2cnccn2)CC1)c1ccc(F)cc1 (configuration not stated) | < 4.00 |
| COCCN1CCN(C(CN2CCC(NC(C)=O)CC2)c2ccccc2)CC1 (configuration not stated) | > 4.00 |
| Fc1ccc(C(CN2CCN(c3cnccn3)CC2)NCc2ccccc2)cc1 (configuration not stated) | < 4.30 |
| COCCN1CCN(C(CN2CCCCC2)c2ccccc2)CC1 (configuration not stated) | > 4.00 |
| Clc1ccc(C(CN2CCN(c3cnccn3)CC2)NCc2ccccn2)cc1 (configuration not stated) | < 4.00 |
| COc1ccc(CNC(CN2CCC(N3CCCCC3)CC2)c2ccccc2)cc1 (configuration not stated) | > 4.00 |
| CC(C)N1CCN(C(CN2CCC(N3CCCCC3)CC2)c2ccccc2)CC1 (configuration not stated) | < 4.00 |
| COCCN1CCN(C(CN2CCOCC2)c2ccccc2)CC1 (configuration not stated) | < 4.00 |
| COCCN1CCN(C(CN2CCC(N3CCCCC3)CC2)c2ccc(F)cc2)CC1 (configuration not stated) | > 4.30 |
| Fc1ccccc1C(CN1CCN(c2cnccn2)CC1)NCc1ccccn1 (configuration not stated) | < 4.00 |
| COCCN1CCN(C(CN2CCC(N3CCCCC3)CC2)c2ccc(Cl)cc2)CC1 (configuration not stated) | < 4.00 |
| CCOCCN1CCN(C(CN2CCC(N3CCCCC3)CC2)c2ccccc2)CC1 (configuration not stated) | > 4.30 |
| Fc1ccc(C(CN2CCN(c3ccccn3)CC2)NCc2ccccn2)cc1 (configuration not stated) | < 4.00 |
| CCOC(=O)C1CCN(CC(c2ccccc2)N2CCN(CCOC)CC2)CC1 (configuration not stated) | < 4.00 |
| COCCN1CCN(C(CN2CCC(N3CCCC3)CC2)c2ccccc2)CC1 (configuration not stated) | > 4.30 |
| COCCNC(CN1CCN(C(=O)C2CCCO2)CC1)c1ccc(F)cc1 (configuration not stated) | < 4.00 |
| COCCN1CCN(C(CN2CCC(N3CCOCC3)CC2)c2ccccc2)CC1 (configuration not stated) | > 4.30 |
| O=C(c1ccccn1)N1CCN(CC(NCc2ccccn2)c2ccc(F)cc2)CC1 (configuration not stated) | < 4.00 |

| Compound | pIC50 |
| --- | --- |
| c1ccc(C(CN2CCN(c3cnccn3)CC2)NCc2ccccn2)cc1 (configuration not stated) | < 4.00 |
| Fc1ccc(C(CN2CCN(c3cnccn3)CC2)NCc2cccs2)cc1 (configuration not stated) | < 4.30 |
| COCCC1CCN(C(CN2CCC(N3CCCCC3)CC2)c2ccccc2)CC1 (configuration not stated) | < 4.00 |
| c1ccc(C(CN2CCC(N3CCCCC3)CC2)NCCN2CCOCC2)cc1 (configuration not stated) | > 4.00 |
| COCCN1CCN(C(CN2CCC(C(=O)Nc3ccccc3)CC2)c2ccccc2)CC1 (configuration not stated) | > 4.00 |
| COCCN1CCN(C(CN2CCC(N3CCCCC3)CC2)c2cccc(Cl)c2)CC1 (configuration not stated) | < 4.00 |
| Fc1ccc(C(CN2CCN(c3cnccn3)CC2)NCc2ccccn2)cc1 (configuration not stated) | > 4.30 |
| COCCN1CCN(C(CN2CCC(N3CCCCC3)CC2)c2ccc(C#N)cc2)CC1 (configuration not stated) | > 4.30 |
| c1ccc(C(CN2CCC(N3CCCCC3)CC2)N2CCN(CCn3ccnc3)CC2)cc1 (configuration not stated) | < 4.00 |
| O=C(C1CCCO1)N1CCN(CC(NCc2cccs2)c2ccc(F)cc2)CC1 (configuration not stated) | < 4.00 |
| c1ccc(C(CN2CCC(N3CCCCC3)CC2)N2CCN(c3cnccn3)CC2)cc1 (configuration not stated) | < 4.00 |
| O=S(=O)(c1ccccc1)N1CCN(CC(NCc2ccccn2)c2ccc(F)cc2)CC1 (configuration not stated) | < 4.00 |
| COCCN1CCN(C(CN2CCC(N(C)C)CC2)c2ccccc2)CC1 (configuration not stated) | > 4.30 |
| COCCN1CCN(C(CN2CCC(N3CCCCC3)CC2)c2ccc(C(F)(F)F)cc2)CC1 (configuration not stated) | > 4.30 |
| COCCCN1CCN(C(CN2CCC(N3CCCCC3)CC2)c2ccccc2)CC1 (configuration not stated) | > 4.30 |
| Fc1cccc(C(CN2CCN(c3cnccn3)CC2)NCc2ccccn2)c1 (configuration not stated) | < 4.00 |
| COCCN1CCN(C(CN2CCC(Nc3ccccc3)CC2)c2ccccc2)CC1 (configuration not stated) | < 4.00 |
| COCCN1CCN(C(CN2CCC(N3CCN(C)CC3)CC2)c2ccccc2)CC1 (configuration not stated) | < 4.00 |
| COCCN1CCN(C(CN2CCC(NC(=O)C(C)C)CC2)c2ccccc2)CC1 (configuration not stated) | > 4.00 |
| c1ccc(C(CN2CCC(N3CCCCC3)CC2)N2CCN(C3CCCC3)CC2)cc1 (configuration not stated) | < 4.00 |
| CCOc1ccc(C(CN2CCC(N3CCCCC3)CC2)N2CCN(CCOC)CC2)cc1 (configuration not stated) | < 4.00 |
| COCCN1CCN(C(CN2CCC(NC(=O)c3ccccc3)CC2)c2ccccc2)CC1 (configuration not stated) | < 4.00 |
| CC(=O)N1CCN(CC(NCc2ccccn2)c2ccc(F)cc2)CC1 (configuration not stated) | < 4.00 |
